From doi:10.1101/2025.08.13.670122v1 (bioRxiv, 2025)

Assays:
Sprague-Dawley rats = experiment: Simultaneous in vivo echocardiography and blood pressure measurements; set-up: species or system rat; conditions: intrajugular perfusion 0.96 nmol kg−1 min−1, n = 4; for Change in left ventricular ejection fraction (ΔEF) / cardiac contractility: isoflurane-anesthetized Sprague-Dawley rats; for Change in mean arterial blood pressure (ΔMABP): isoflurane-anesthetized normotensive Sprague-Dawley rats
Experimental: All ligands were administered intravenously at the same dose (0.96 nmol kg^−1 min^−1), by instrumentalizing adult Sprague-Dawley rats for simultaneous recordings of arterial blood pressure and cardiac function (Figure 5A).
Figure 5. Simultaneous in vivo cardiac ultrasound imaging and blood pressure monitoring of adult Sprague-Dawley rats following constant administration of AT1R ligands. (A) The acquisition setup for each isoflurane-anesthetized rat includes a catheter in the right femoral artery connected to a TDX300 Micro-med transducer and BPA-100c blood pressure (BP) analyzer for continuous BP measurement, while drug administration is performed via a catheter inserted in the left jugular vein and linked to an automatic syringe pump set at a flow rate of 30 µl*min^−1. […] The syringe pump is initiated at 0 s, and the catheter’s saline dead volume is flushed in approximately 180 s.
Figure 6. […] Changes in mean arterial blood pressure (ΔMABP; A), ejection fraction (ΔEF; B), left ventricular end-systolic (ΔLVES; C) and end-diastolic (ΔLVEDV; D) volumes, and stroke volume (ΔSV; E) were measured from simultaneous in vivo cardiac blood pressure monitoring and ultrasound imaging. […] The syringe pump is initiated at 0 s, and the catheter’s saline dead volume is flushed in approximately 180 s. […] Statistical analyses were performed with an unpaired standard t-test. * p < 0.05, ** p < 0.01 and ***p<0.005.
Male Sprague-Dawley rats (230–350 g, 7–9 weeks of age) were initially anesthetized with 5% isoflurane (mixed with 100% oxygen at a flow rate of 2.5 L/min). The animal was placed in a supine position on a thermostatic pad set at 37°C, and anesthesia was maintained with 2% isoflurane, confirmed by the absence of reflexes to toe pinch. The right femoral artery was cannulated with a PE 50 catheter filled with heparinized saline (10 units/mL) and connected to a Micro-Med transducer (TDX-300) and a Micro-Med blood pressure analyzer (BPA-100c). The left jugular vein was also cannulated with a PE 50 catheter filled with heparinized saline (10 units/mL) and connected to a syringe operated by an automatic pump with a flow rate of 30 µL min-1. […] Blood pressure parameters were continuously obtained throughout the experiment, and heart function parameters were simultaneously captured at various time points using a Vevo3100 echocardiography system equipped with an MX250 ultrasound probe (FUJIFILM VisualSonics). The ejection fraction was determined from a parasternal long-axis view of the left ventricle in B-mode imaging and analyzed using Vevo LAB 5.7.1 (FUJIFILM VisualSonics). Data were presented as the mean ± SEM of four different rats per group. Statistical analyses were conducted with standard analysis of variance (ANOVA) followed by Tukey’s multiple comparisons test. […]

endogenous AT1R [1] = molecular target: T1, endogenous AT1R (Rattus norvegicus, UniProt P25095); experiment: Rho BRET sensor in rat primary VSMC with endogenous AT1R; format: cell-based; conditions: adenoviral Rho BRET sensor, 1 min 30 s stimulation, mean ± SEM of at least three to five independent experiments, read-out: EC50 Rho in VSMCs
T1 construct: expressing low levels of endogenous AT1R; endogenous in cells; host or cells: rat primary VSMC, passages 13-15
T1 sequence (P25095 1-359): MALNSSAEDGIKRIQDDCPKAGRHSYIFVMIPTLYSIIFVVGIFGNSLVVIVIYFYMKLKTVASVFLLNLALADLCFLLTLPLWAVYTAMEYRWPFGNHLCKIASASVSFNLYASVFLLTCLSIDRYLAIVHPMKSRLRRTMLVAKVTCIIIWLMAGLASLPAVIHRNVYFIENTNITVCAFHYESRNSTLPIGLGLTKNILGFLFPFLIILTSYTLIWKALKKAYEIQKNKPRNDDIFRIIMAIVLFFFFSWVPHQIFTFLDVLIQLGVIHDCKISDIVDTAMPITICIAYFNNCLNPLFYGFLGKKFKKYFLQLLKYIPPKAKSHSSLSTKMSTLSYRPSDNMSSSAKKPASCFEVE
From the text: (§1) We next assessed the analogs’ ability to engage Gαq by assessing either the PKC or Rho responses in rat primary vascular smooth muscle cell (VSMC) culture, expressing low levels of endogenous AT1R (between 25–50 fmol/mg) (Figure 4, Table 6).
(§2) The coding regions of the PKC-c1b sensor, PKN-RBD-RlucII, and rGFPcaax were PCR-amplified and subcloned into the KpnI/XhoI sites of the pENTR3C vector (Invitrogen), respectively. These were then transferred into the adenoviral expression vector pAd/CMV/V5-DEST (Invitrogen), via gateway cloning (pAD-CMV-PKC-c1b, pAD-CMV-PKN-RBD-RLucII, and pAD-CMV-rGFPcaax). Viruses containing the sensor codes were generated following a previously outlined process.[49] […] The following day, cells were transfected with 4 µg of PacI-digested pAd5-CMVsensors using Lipofectamine 2000 (Invitrogen). After 7–10 days post-transfection, mature virus particles were gleaned via the collection of cells and media, which then underwent multiple cycles of freezing and thawing, followed by centrifugation. The harvested virus was amplified by re-infection on 100-mm dishes of confluent HEK293A cells, and harvested 48-72 h later. Viral titers were determined by serial dilution of adenovirus stock and subsequent infection of HEK293A cells in 96-well plates. 36 h after infection, cells were stained using an anti-hexon antibody (ab8249; Abcam), and hexon-expressing cells were tallied via fluorescence microscopy. The virus was then stored at −80°C. After this, rat VSMCs (between the 13th to 15th passages) were seeded at a density of 20,000 cells in each well of white 96-well plates 24 h before transduction with the viral vector. The cells were then transduced with the PKC sensor-adenovirus (3 μL per well) or Rho sensor (1 μL each per well of PKN-RBD-RLucII-adnovirus and rGFP-caax adenovirus). After 24 h, the medium was replaced. 48 h post-viral transduction, the cells were thoroughly washed with Tyrode’s buffer. Finally, BRET assays were carried out as detailed below.
(§3) On the day of the experiment, each well was washed with 80 µL of Tyrode’s buffer (140 mM NaCl, 2.7 mM KCl, 1 mM CaCl2, 12 mM NaHCO3, 5.6 mM D-glucose, 0.5 mM MgCl2, 0.37 mM NaH2PO4, 25 mM Hepes (pH 7.4)). This was followed by incubation for 1 h in Tyrode’s buffer at room temperature. For the Gαq, β-arrestin-2, and PKC biosensors used in HEK293 cells, coelenterazine 400A (at a final concentration of 5 μM) was added 10 min before stimulation. Cells were then stimulated with increasing doses of the indicated ligand, and BRET signals were measured using a Tristar2 (Berthold) microplate reader 10 min later. For the PKC and Rho biosensors in VSMCs, and the Rho biosensor in ΔG12/13 cells, cells were similarly stimulated with ligands for 1 min, 1 min 30 s, and 3 min, respectively, before BRET measurement. […] BRET signals were then measured using a Synergy2 (BioTek) microplate reader. The applied filter set was 410/80 nm and 515/30 nm, designed to detect the light emissions of RlucII (Renilla luciferase) (donor) and rGFP (acceptor), respectively.

endogenous AT1R [2] = molecular target: T1, endogenous AT1R; experiment: PKC BRET sensor in rat primary VSMC with endogenous AT1R; format: cell-based; conditions: adenoviral PKC BRET sensor, 1 min stimulation, mean ± SEM of at least three to five independent experiments, read-out: EC50 PKC in VSMCs
From the text: as §1, §2, §3

Plasma stability = format: in vitro ADME; conditions: male Sprague-Dawley rat plasma, 6 μL of 1 mM compound (10% DMSO) in 27 μL plasma, 37°C, 0-24 h, UPLC-MS, one-phase decay, mean ± SEM of at least three experiments, read-out: Plasmatic half-life t1/2 (±SEM)
Experimental: The degradation was quenched by adding 140 μL of 1% formic acid in an acetonitrile-ethanol (1:1) solution containing 0.25 mM of N,N-dimethylbenzamide (used as an internal standard). This mixture was initially transferred to an Impact Protein Precipitation filter plate (Phenomenex, California), the filtrates from which were subsequently collected in a second 96-well UPLC plate. Both plates were centrifuged at 500 g for 10 min while maintaining a temperature of 4°C. The filtrates were then diluted with 30 μL of distilled water and processed for analysis using an Acquity UPLC-MS system class H (using an Acquity UPLC protein BEH C18 column that measured 2.1 mm × 50 mm and had 1.7 μm particles with pores 130 Å in width). The peptide half-life, derived from the degradation curve, was calculated using the exponential one-phase decay function in GraphPad Prism 9. Degradation was estimated by comparing the mass spectrum at each point with those at the zero-minute mark. The data were presented as a mean ± SEM of at least three unique experiments, each performed in singlicate.

Row | EC50 (endogenous AT1R [1]) | EC50 (endogenous AT1R [2]) | half-life at 182 µM (Plasma stability) | Structure (SMILES) | Change in left ventricular ejection fraction (ΔEF) / cardiac contractility (Sprague-Dawley rats) | Change in mean arterial blood pressure (ΔMABP) (Sprague-Dawley rats)
1 |  |  |  | CCCc1nc(C(C)(C)O)c(C(=O)O)n1Cc1ccc(-c2ccccc2-c2nnn[nH]2)cc1 [Olmesartan] | did not alter the cardiovascular parameters measured | did not alter the cardiovascular parameters measured
2 | > 10 µM | > 10 µM | 964 ± 72 min | CC[C@H](C)[C@H](NC(=O)[C@H](Cc1ccc(O)cc1)NC(=O)[C@@H](NC(=O)[C@H](CCCNC(=N)N)NC(=O)CNC)C(C)C)C(=O)N[C@@H](Cc1cnc[nH]1)C(=O)N1CCC[C@H]1C(=O)N[C@H](C)C(=O)O [TRV027, reference compound] |  | 
3 |  |  |  | CC[C@H](C)[C@H](NC(=O)[C@H](Cc1ccc(O)cc1)NC(=O)[C@@H](NC(=O)[C@H](CCCNC(=N)N)NC(=O)[C@@H](N)CC(=O)O)C(C)C)C(=O)N[C@@H](Cc1c[nH]cn1)C(=O)N1CCC[C@H]1C(=O)N[C@@H](Cc1ccccc1)C(=O)O [AngII, Angiotensin II] | significant decrease in cardiac ejection fraction of the left ventricle | rapid and sustained increase in arterial blood pressure
